The values that follow come from PubChem BioAssay (NCI).

Among the test systems are MDA-MB-435; T-47D breast; HS 578T breast; DU-145 prostate; MDA-MB-231 breast.
Holding throughout (experiment): inhibition of tumour cell growth, NCI panel, 48 h

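Step 1: Grow cells in 96-well plates. Step 2: Expose to compound for 48 hours at 5 concentrations. Step 3: Interpolate endpoints linearly; if unreached, use highest concentration. GI50 marks 50% less growth. TGI denotes the concentration required for complete inhibition of growth.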 Where only a bound is given, the exact number is not on record here.

Take `NC(N)=NC(N)=Nc1cc2ccccc2c2ccccc12`: the GI50 is 12.4 µM with MDA-MB-435; 11 µM in the test with T-47D breast; 11.5 µM in the test with HS 578T breast; 11.9 µM with DU-145 prostate; 3.52 µM in the test on MDA-MB-231 breast. Further, the TGI in the test on MDA-MB-435 turned out to be 25.4 µM; in the test with T-47D breast, 29.3 µM; in the test with HS 578T breast, 33.8 µM; in the test on DU-145 prostate, 25 µM; in the test on MDA-MB-231 breast, 16 µM.
`Cn1cc(C2=C(c3cn(C)c4c(N)cccc34)C(=O)NC2=O)c2ccccc21`: the GI50 in the test with MDA-MB-435 is 0.0872 µM; with T-47D breast, 1.31 µM; with HS 578T breast, 0.618 µM; with DU-145 prostate, 2.48 µM; with MDA-MB-231 breast it was 4.63 µM. Moreover, the TGI in the test on MDA-MB-435 was greater than 25 µM; in the test on T-47D breast it was 11.9 µM; in the test with HS 578T breast it was 19 µM; with DU-145 prostate, greater than 25 µM; in the test on MDA-MB-231 breast, 20.8 µM.
On to `CCCCNC(=O)NS(=O)(=O)c1ccc(N2N=C(c3ccc(C)cc3C)CC2c2ccc(N(C)C)cc2)cc1` (stereo not given), for which the GI50 in the test on MDA-MB-435 is 2.55 µM; in the test with T-47D breast, 5.16 µM; with HS 578T breast, 3.95 µM; with DU-145 prostate, 5.75 µM; with MDA-MB-231 breast it was 5.36 µM. For the same compound, the TGI is 7.59 µM in the test with MDA-MB-435; greater than 100 µM in the test on T-47D breast; greater than 100 µM with HS 578T breast; 81.1 µM with DU-145 prostate; 35.6 µM with MDA-MB-231 breast.
Turning to `CC(=O)[O][Hg][c]1c(C)c(C)c(C)c(C)c1C`, the GI50 is 1.5 µM in the test on MDA-MB-435; 1.36 µM in the test with T-47D breast; 0.899 µM with HS 578T breast; 8.79 µM in the test with DU-145 prostate; 0.552 µM in the test on MDA-MB-231 breast. In addition, the TGI with MDA-MB-435 was found to be 3.09 µM; in the test on T-47D breast, 3.74 µM; with HS 578T breast it was 3.52 µM; in the test with DU-145 prostate, 22.8 µM; in the test with MDA-MB-231 breast it was 1.31 µM.
`COc1ccc(S(=O)(=O)N(Cc2ccc3c(n2)C=CC(C)(C)O3)C2CCC2)cc1OC`: the GI50 with MDA-MB-435, in the test on T-47D breast, with HS 578T breast, in the test with DU-145 prostate and in the test on MDA-MB-231 breast was less than 0.01 µM each time. Further, the TGI with MDA-MB-435 worked out at 0.422 µM; with T-47D breast, 0.231 µM; in the test with HS 578T breast it was 0.0677 µM; in the test with DU-145 prostate, 3.45 µM; in the test with MDA-MB-231 breast, 0.0131 µM.
For `N#C/C(C(=S)Nc1ccccc1)=C1/NN=C2c3ccccc3C(=O)NN21`, the GI50 is 7.8 µM in the test on MDA-MB-435; 36.7 µM in the test with T-47D breast; 22.7 µM with HS 578T breast; 28.8 µM in the test with DU-145 prostate; 29.5 µM with MDA-MB-231 breast. Also, the TGI is 24.3 µM in the test on MDA-MB-435; greater than 100 µM in the test on T-47D breast; 57.2 µM with HS 578T breast; greater than 100 µM in the test on DU-145 prostate; greater than 100 µM in the test with MDA-MB-231 breast.
As for `Cn1cc(C2=C(c3cn(CCCN=C(N)N)c4ccccc34)C(=O)NC2=O)c2ccccc21`, the GI50 in the test with MDA-MB-435, in the test on T-47D breast, in the test on HS 578T breast, in the test on DU-145 prostate and in the test on MDA-MB-231 breast was greater than 25 µM in each case. In addition, the TGI in the test with MDA-MB-435, with T-47D breast, in the test with HS 578T breast, with DU-145 prostate and with MDA-MB-231 breast was greater than 25 µM in each case.
Turning to `O=C(C[C@@H](C(=O)NCc1cccc(C(F)(F)F)c1)N1C(=O)[C@@H](N2C(=O)OC[C@@H]2c2ccccc2)[C@H]1/C=C/c1ccccc1)NC1CCN(Cc2ccccc2)CC1`, the GI50 in the test on MDA-MB-435 was 2.45 µM; in the test on T-47D breast, 15.7 µM; in the test with HS 578T breast, 10.3 µM; with DU-145 prostate, 7.72 µM; with MDA-MB-231 breast it was 4.02 µM. Moreover, the TGI with MDA-MB-435 was 7.66 µM; in the test with T-47D breast, 38.9 µM; with HS 578T breast, 29.6 µM; with DU-145 prostate it was greater than 100 µM; with MDA-MB-231 breast it was 20 µM.
`COc1ccc(C(=O)/C=C/c2cccnc2Nc2cc(OC)c(OC)c(OC)c2)cc1`: the GI50 was 0.885 µM in the test with MDA-MB-435; 1.94 µM in the test on T-47D breast; 5.31 µM with HS 578T breast; 4.89 µM with DU-145 prostate; 2.67 µM in the test with MDA-MB-231 breast. Also, the TGI was 12.2 µM in the test on MDA-MB-435; 15.6 µM in the test with T-47D breast; 38.6 µM in the test with HS 578T breast; 17.1 µM in the test on DU-145 prostate; 12.4 µM with MDA-MB-231 breast.
With `CC(C)(C)OC(=O)N(CCCN(CCn1c2c(c3ccccc3c1=O)C(=O)c1ccccc1-2)C(=O)OC(C)(C)C)CCn1c2c(c3ccccc3c1=O)C(=O)c1ccccc1-2`, the GI50 with MDA-MB-435 is greater than 50 µM; in the test on T-47D breast, greater than 50 µM; in the test on HS 578T breast, 41.1 µM; in the test on DU-145 prostate it was greater than 50 µM; in the test with MDA-MB-231 breast it was greater than 50 µM. Moreover, the TGI in the test with MDA-MB-435, in the test on T-47D breast, with HS 578T breast, in the test with DU-145 prostate and in the test on MDA-MB-231 breast was greater than 50 µM each time.
In the case of `C[C@]12CC[C@@H]3c4ccc(O)cc4CC[C@H]3[C@@H]1CC[C@@H]2NS(=O)(=O)c1ccc(C(F)(F)F)cc1`, the GI50 with MDA-MB-435 is 2.12 µM; with T-47D breast it was 2.68 µM; with HS 578T breast, 2.23 µM; in the test with DU-145 prostate, 2.75 µM; in the test with MDA-MB-231 breast, 1.74 µM. Further, the TGI with MDA-MB-435 worked out at 5 µM; in the test with T-47D breast it was 6.32 µM; in the test on HS 578T breast, 6.01 µM; with DU-145 prostate it was 7.11 µM; in the test with MDA-MB-231 breast it was 3.31 µM.
`CN1C(NC(=O)c2ccc(Cl)nc2)=NS(=O)(=O)c2cc(Cl)ccc21`: the GI50 with MDA-MB-435, with T-47D breast, with HS 578T breast, in the test with DU-145 prostate and in the test on MDA-MB-231 breast was greater than 100 µM each time. Further, the TGI in the test on MDA-MB-435, with T-47D breast, with HS 578T breast, with DU-145 prostate and with MDA-MB-231 breast was greater than 100 µM throughout.
As to `C=C1C(=O)O[C@H]2[C@H]1CC/C(COC(=O)/C=C\C(=O)NCc1ccc(Cn3c(=O)sn(-c4ccc(C#N)cc4)c3=O)cc1)=C\CC[C@@]1(C)O[C@@H]21`, the GI50 in the test with MDA-MB-435 is 0.744 µM; in the test with T-47D breast, 0.836 µM; in the test on HS 578T breast, 0.987 µM; with DU-145 prostate, 0.725 µM; in the test on MDA-MB-231 breast it was 0.72 µM. Also, the TGI came to 1.5 µM with MDA-MB-435; 2.18 µM in the test with T-47D breast; 2.79 µM with HS 578T breast; 1.4 µM in the test on DU-145 prostate; 1.74 µM in the test with MDA-MB-231 breast.
